Where two headings read alike, the source gives them in different places.
Key:
[1] = molecular target: T1, G-protein-linked cannabinoid receptors (Rattus norvegicus, UniProt P20272); assay: GTP-γ-[35S] binding in whole rat brain; type: biochemical; conditions: for Emax: read-out: Emax, GTP-γ-[35S] in Whole Rat Brain; for EC50: inverse agonist/antagonist activity
T1 construct: tissue Charles River or Pel-Freez Biologicals; host or cells: whole rat brain crude membrane homogenate
Description: Cannabinoid receptor-mediated alteration in GTP-γ-[^35S] binding.
Introduction. The purpose of this assay was to characterize the functional activity of lead compounds identified by the radioligand competition binding assays described above. Data from the GTP-γ-[^35S] binding assay was used to determine if a compound was an agonist, antagonist or inverse agonist at G-protein-linked cannabinoid receptors. Agonist binding to a G-protein-linked receptor results in an increased affinity of the G-protein α-subunit for GTP relative to GDP. Eventually, an active αGTP complex forms to complete the stimulus-effector coupling. The α-subunit has intrinsic GTPase activity which generates a free α-subunit which can recombine with the β- and γ-subunits readying the G-protein for another signal transduction cycle. In the current assay, GTP-γ-[^35S] cannot be hydrolyzed by the α-subunit. Thus, the amount of bound GTP-γ-[^35S] is a marker for G-protein activation. In this assay, an agonist increases basal GTP-γ-[^35S] binding, an inverse agonist decreases basal binding and basal binding would be unaffected by an antagonist.
Experimental Design. The specific binding of GTP-γ-[^35S], in the absence of test compound, was termed “basal” activity. Test compounds were characterized as agonist, antagonist, or inverse agonist based on their effect on basal activity. […] The concentrations spanned two orders of magnitude because affinity may not be related to efficacy. […] Effects of the test compounds are reported as the percent change from basal. More thorough dose-response analysis may be run to determine, for example, if a compound is a full or partial agonist.
Methods. […] In a final volume of 0.5 mL, each assay tube contained: 0.02 mg crude membrane homogenate (0.1 mL), 200 μM GDP (0.05 mL; to reduce basal G-protein activity), 0.1 nM GTP-γ-[^35S] (0.05 mL) and several concentrations of test compound (0.05 mL) or an equivalent volume of vehicle (used for determination of total binding). Nonspecific binding was determined in the presence of 100 μM unlabeled GTP-γ-S (0.05 mL). Duplicate samples were incubated for 1 h at 30° C. Since this assay is amenable for use with high throughput screening methods, the binding assays were run using a 96-well plate format. Specific binding was calculated as total binding-nonspecific binding.

human CB2 receptor = molecular target: T2, human CB2 receptor (Homo sapiens, UniProt P34972); assay: Displacement of 3H-CP55,940 in human CB2 receptor-transfected cells (CHO-K1); type: binding; conditions: radioligand 3H-CP55940, Tables 6 and 7
T2 construct: expressed in transfected cells; host or cells: CHO-K1
How it was run: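 CB2 receptor expressed in CHO-K1 cells; [3H]-CP55,940 displacement with incubation and separation as for rat brain membranes.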

human CB1 receptor = molecular target: T3, human CB1 receptor (Homo sapiens, UniProt P21554); assay: Radioligand displacement in human CB1 receptor-transfected cells (HEK-293); type: binding
T3 construct: expressed in transfected cells; host or cells: HEK-293
How it was run: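 Radioligand displacement was run on HEK-293 cells expressing human CB1, with incubation and separation as for rat brain membranes. IC50 values came from one- or two-site nonlinear regression and were converted to Ki by Cheng-Prusoff.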

[2] = whole rat brain membranes, effects reported as percent change from basal
[3] = whole rat brain membranes, read-out: EC50, GTP-γ-[35S] in Whole Rat Brain
[4] = read-out: Ki, displacement of 3H-CP55940, human CB2 transfected cells
[5] = displacement of 3H-CP55940, human CB1 transfected cells, radioligand 3H-CP55940, Table 3
[6] = displacement of 3H-SR141716A, human CB1 transfected cells, radioligand 3H-SR141716A, Table 3
[7] = displacement of 3H-WIN55212-2, human CB1 transfected cells, radioligand 3H-WIN55212-2, Table 3
[8] = human CB1 transfected cells, radioligand 3H-CP55940, Table 3
[9] = human CB1 transfected cells, radioligand 3H-SR141716A, Table 3
[10] = human CB1 transfected cells, radioligand 3H-WIN55212-2, Table 3

T3 sequence (P21554 whole entry): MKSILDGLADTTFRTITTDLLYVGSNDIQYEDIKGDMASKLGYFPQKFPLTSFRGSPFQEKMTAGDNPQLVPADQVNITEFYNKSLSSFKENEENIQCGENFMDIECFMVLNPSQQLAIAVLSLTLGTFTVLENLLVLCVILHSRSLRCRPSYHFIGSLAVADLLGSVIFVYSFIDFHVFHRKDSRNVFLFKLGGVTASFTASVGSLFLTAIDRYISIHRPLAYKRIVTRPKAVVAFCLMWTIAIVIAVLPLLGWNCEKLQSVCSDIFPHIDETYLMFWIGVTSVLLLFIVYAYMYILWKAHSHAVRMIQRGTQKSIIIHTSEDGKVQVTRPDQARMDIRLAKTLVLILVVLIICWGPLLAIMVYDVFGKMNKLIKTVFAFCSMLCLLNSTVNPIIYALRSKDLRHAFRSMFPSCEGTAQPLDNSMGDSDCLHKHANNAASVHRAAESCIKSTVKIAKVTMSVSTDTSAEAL
T1 sequence (P20272 whole entry): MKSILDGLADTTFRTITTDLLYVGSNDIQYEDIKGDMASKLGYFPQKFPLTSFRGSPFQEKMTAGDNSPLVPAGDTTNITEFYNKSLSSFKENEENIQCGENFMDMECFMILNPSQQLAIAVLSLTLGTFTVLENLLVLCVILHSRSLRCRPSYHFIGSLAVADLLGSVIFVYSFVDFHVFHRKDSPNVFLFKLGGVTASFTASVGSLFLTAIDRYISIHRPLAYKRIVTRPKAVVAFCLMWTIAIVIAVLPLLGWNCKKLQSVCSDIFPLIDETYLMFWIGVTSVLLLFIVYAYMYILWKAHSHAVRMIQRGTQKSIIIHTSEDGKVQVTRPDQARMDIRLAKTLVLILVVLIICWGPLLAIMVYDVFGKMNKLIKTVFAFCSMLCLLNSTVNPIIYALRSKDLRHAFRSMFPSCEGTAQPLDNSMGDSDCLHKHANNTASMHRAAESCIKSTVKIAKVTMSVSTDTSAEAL
T2 sequence (P34972 whole entry): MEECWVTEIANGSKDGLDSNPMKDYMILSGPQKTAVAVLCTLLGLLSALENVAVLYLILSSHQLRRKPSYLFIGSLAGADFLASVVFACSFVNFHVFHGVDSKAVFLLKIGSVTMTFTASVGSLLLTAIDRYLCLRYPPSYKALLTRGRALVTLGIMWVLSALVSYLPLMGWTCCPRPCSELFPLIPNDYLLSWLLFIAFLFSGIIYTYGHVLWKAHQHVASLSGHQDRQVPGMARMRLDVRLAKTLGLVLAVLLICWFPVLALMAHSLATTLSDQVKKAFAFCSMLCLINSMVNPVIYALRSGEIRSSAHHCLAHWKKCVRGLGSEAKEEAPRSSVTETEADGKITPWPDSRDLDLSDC

| Emax [1, 2] | EC50 [1, 3] | Max. Disp. %, 3H-CP55940 (human CB2 receptor; human CB2 transfected cells) | Ki (human CB2 receptor; [4]) | Ki (human CB1 receptor; [5]) | Ki (human CB1 receptor; [6]) | Ki (human CB1 receptor; [7]) | Max. Disp. %, 3H-CP55940 (human CB1 receptor; [8]) | Max. Disp. %, 3H-SR141716A (human CB1 receptor; [9]) | Max. Disp. %, 3H-WIN55212-2 (human CB1 receptor; [10]) | SMILES | Max. Disp. %, 3H-CP55940 (human CB1 receptor) | Max. Disp. %, 3H-SR141716A (human CB1 receptor) | Max. Disp. %, 3H-WIN55212-2 (human CB1 receptor) | Ki (human CB1 receptor; displacement of 3H-CP55940) | Ki (human CB1 receptor; displacement of 3H-SR141716A) | Ki (human CB1 receptor; displacement of 3H-WIN55212-2) | EC50 ([1]; EC50, GTP-γ-[35S] in Whole Rat Brain, whole rat brain membranes) | Emax [1] | Ki (human CB2 receptor; Ki, displacement of 3H-CP55940, human CB2 transfected cells) |
| --- | --- | --- | --- | --- | --- | --- | --- | --- | --- | --- | --- | --- | --- | --- | --- | --- | --- | --- | --- |
| -76.3% | 38900 nM | 54.5% | 2400 nM |  |  |  |  |  |  | Cc1c(C(=O)NN2CCOCC2)nn(-c2ccc(Cl)cc2Cl)c1-c1ccc(Cl)cc1 [MF9725-33D] |  |  |  |  |  |  |  |  |  |
| -38.5% | 8540 nM | 75.6% | 1600 nM | 28 nM | 4.79 nM | 29.8 nM | 90.2% | 97.4% | 93.2% | CCCCNC(=O)c1nn(-c2ccc(Cl)cc2Cl)c(-c2ccc(Cl)cc2)c1C [MF9725-64-17] |  |  |  |  |  |  |  |  |  |
| -46.4% | 16000 nM | 68.3% | 1740 nM | 91 nM | 14.4 nM | 692 nM | 85.4% | 100% | 93.6% | Cc1c(C(=O)NC(C)C)nn(-c2ccc(Cl)cc2Cl)c1-c1ccc(Cl)cc1 [MF9725-65-11] |  |  |  |  |  |  |  |  |  |
| -22.1% | 26000 nM | 84.5% | 228 nM | 7.06 nM | 1.02 nM | 5.36 nM | 92.3% | 99.9% | 96.8% | Cc1c(C(=O)NC2CCCCC2)nn(-c2ccc(Cl)cc2Cl)c1-c1ccc(Cl)cc1 [MF9725-66-11] |  |  |  |  |  |  |  |  |  |
| -11% | 7540 nM | 80.0% | 704 nM | 93.6 nM | 14.3 nM | 127 nM | 70.1% | 99.5% | 100% | Cc1c(C(=O)NCC(C)C)nn(-c2ccc(Cl)cc2Cl)c1-c1ccc(Cl)cc1 [MF9725-68-10] |  |  |  |  |  |  |  |  |  |
| -13% | 29400 nM | 66.9% | 6870 nM | 124 nM | 23.5 nM | 85.4 nM | 85.6% | 75.4% | 52.7% | CCCCCCNC(=O)c1nn(-c2ccc(Cl)cc2Cl)c(-c2ccc(Cl)cc2)c1C [MF9725-132-25] |  |  |  |  |  |  |  |  |  |

| SMILES | Emax [1, 2] | EC50 [1, 3] | Max. Disp. %, 3H-CP55940 (human CB2 receptor; human CB2 transfected cells) | Ki (human CB2 receptor; [4]) | Ki (human CB1 receptor; [5]) | Ki (human CB1 receptor; [6]) | Ki (human CB1 receptor; [7]) | Max. Disp. %, 3H-CP55940 (human CB1 receptor; [8]) | Max. Disp. %, 3H-SR141716A (human CB1 receptor; [9]) | Max. Disp. %, 3H-WIN55212-2 (human CB1 receptor; [10]) | Max. Disp. %, 3H-CP55940 (human CB1 receptor) | Max. Disp. %, 3H-SR141716A (human CB1 receptor) | Max. Disp. %, 3H-WIN55212-2 (human CB1 receptor) | Ki (human CB1 receptor; displacement of 3H-CP55940) | Ki (human CB1 receptor; displacement of 3H-SR141716A) | Ki (human CB1 receptor; displacement of 3H-WIN55212-2) | EC50 ([1]; EC50, GTP-γ-[35S] in Whole Rat Brain, whole rat brain membranes) | Emax [1] | Ki (human CB2 receptor; Ki, displacement of 3H-CP55940, human CB2 transfected cells) |
| --- | --- | --- | --- | --- | --- | --- | --- | --- | --- | --- | --- | --- | --- | --- | --- | --- | --- | --- | --- |
| CCCCCCCNC(=O)c1nn(-c2ccc(Cl)cc2Cl)c(-c2ccc(Cl)cc2)c1C [MF9725-133-25] |  |  | 47.8% |  |  |  |  |  |  |  | 85.3% | 67.9% | 53.4% | 29.1 nM | 9.3 nM | 393 nM | 213000 nM | -20% | 4030 nM |
